For series [1], the system named is P. falciparum female gametocytes. As to the kind of experiment: P. falciparum Dual Gamete Formation Assay (PfDGFA), female readout (Pfs25-positive female gametes). The class given is cell-based, Plasmodium falciparum NF54. The conditions noted are these: for IC50: this study, read-out: Pf DGFA IC50 FEM. In a few lines: (§1)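 NF54 mature gametocytes (d14), cpd 24 h 37°C hypoxic gas; trigger: xanthurenic acid ookinete medium + Cy3 anti-Pfs25, 4°C 4 min → 28°C 4 min. Male: exflagellation centres, brightfield x6. Female: Pfs25+ gametes, fluorescence, +24 h 28°C dark.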

Series [2] shares this test system. As to the kind of experiment: P. falciparum Female Gametocyte Activation Assay (PfFGAA). The class given is cell-based, Plasmodium falciparum. The conditions noted are these: Mean TOX HepG2 over FGAA IC50; GREEN = >10-fold; RED = <10-fold.
For series [3], the system named is P. falciparum male gametocytes. As to the kind of experiment: PhIDDLI timecourse assay, compound added at timepoints after triggering male gametogenesis. The settings on record: for cells with late phenotype / cells forming exflagellation centres: compound added at 10 min post-induction; for cells forming exflagellation centres: DMSO control 17.2%; for arrest of gametogenesis: compound added concurrent with triggering gametogenesis. The series is classed as cell-based, Plasmodium falciparum NF54.

Series [4] concerns P. falciparum female gametocytes. Also on record: method as in Miguel-Blanco et al 2017. The settings on record: ref Miguel-Blanco et al 2017; read-out: Pf female gametogenesis FGAA IC50; cited from earlier work.
The test system of series [5] is HepG2 cells. The conditions noted are these: cited from earlier work; for FGAA TOX50 HepG2: HepG2 value reported with the FGAA screen, ref Miguel-Blanco et al 2017; for ODA TOX50 HepG2: HepG2 value reported with the ODA screen, ref Delves et al 2019.
Series [6] relates to P. falciparum male gametocytes. As to the kind of experiment: P. falciparum Dual Gamete Formation Assay (PfDGFA), male readout (exflagellation). The series is classed as cell-based, Plasmodium falciparum NF54. The conditions noted are these: for IC50: this study, read-out: Pf DGFA IC50 MALE. In short, it runs like this:
as §1

Series [7] deals with HepG2 cells. As to the kind of experiment: HepG2 cytotoxicity counter-screen. The conditions noted are these: for Mean TOX: mean of the HepG2 TOX50 values.

Molecules are shown by their SMILES. Like-named read-outs stand apart in the source and are kept apart here.

The term IC50 denotes the concentration that gives 50% inhibition. In the case of `CC(C)(CNC(=O)[C@H]1CCCCN1)c1nc(-c2ccc(Cl)c(O)c2)c(-c2ccncc2)[nH]1.Cl` [TC04], in series [1], the “Cytotox ratio Pf Female” value was 39.8 and the IC50 worked out at 1020 nM. Besides, in series [2], the “Cytotox ratio Pf FGAA” value is given as 76.7. Moreover, in series [3], the “cells with late phenotype” value was 86.3%, the “cells forming exflagellation centres” value is recorded as 0.4% and the arrest of gametogenesis result is recorded as “near total arrest”. The concentration for half-maximal inhibition (IC50) in series [4] was 530 nM. For the same compound, the “FGAA TOX50 HepG2” value in the series on HepG2 cells [5] is recorded as 28.96 µM. Moreover, in series [6], the “Cytotox ratio Pf Male” value came to 24.9 and the half-maximal inhibitory concentration (IC50) was determined as 1630 nM. For the same compound, the “Mean TOX” value with HepG2 cells [7] stood at 40.64 µM.

Regarding `CC(C)(CN)c1nc(-c2ccc(Br)c(O)c2)c(-c2ccncc2)[nH]1.Cl` [TC13], in series [1], the “Cytotox ratio Pf Female” value worked out at 112.9 and the IC50 was 570 nM. In series [2], the “Cytotox ratio Pf FGAA” value stood at 76.6. For the same compound, in series [3], the “cells with late phenotype” value is 83.3%, the “cells forming exflagellation centres” value is 2.7% and the arrest of gametogenesis entry was “near total arrest”. In addition, the concentration for half-maximal inhibition (IC50) in series [4] is 840 nM. For the same compound, in the series on HepG2 cells [5], the “FGAA TOX50 HepG2” value is 45.82 µM and the “ODA TOX50 HepG2” value is given as 47.315 µM. Further, in series [6], the “Cytotox ratio Pf Male” value came out at 43.5 and the IC50 amounted to 1480 nM. The “DGFA Tox50 HepG2” value in the series with HepG2 cells [7] (HepG2 value reported with the DGFA screen) came out at 100 µM. Moreover, in the series with HepG2 cells [7], the “Mean TOX” value turned out to be 64.38 µM.

As for `Cl.NCC1(c2nc(-c3ccc(Cl)c(O)c3)c(-c3ccncc3)[nH]2)CCCCC1` [TC41], in series [1], the “Cytotox ratio Pf Female” value turned out to be 53.2 and the IC50 turned out to be 430 nM. Besides, the “Cytotox ratio Pf FGAA” value in series [2] is recorded as 108.8. In series [3], the “cells with late phenotype” value came out at 84.9%, the “cells forming exflagellation centres” value came to 1.1% and the arrest of gametogenesis result is “near total arrest”. In series [4], the IC50 is 210 nM. Further, in the series on HepG2 cells [5], the “FGAA TOX50 HepG2” value is recorded as 11.9 µM and the “ODA TOX50 HepG2” value is on record as 46.774 µM. In addition, in series [6], the “Cytotox ratio Pf Male” value was 26.9 and the IC50 came to 850 nM. Moreover, the “Mean TOX” value in the series on HepG2 cells [7] is 22.85 µM.
